Measurements from patent publication US6677450B2, “Topoisomerase inhibitors” (Bristol-Myers Squibb Company, priority 2000, dated 2004).
pEC50, pIC50: −log10 of the molar value.

Columns and labels:
[1] = target: T1, purified human topoisomerase I (Homo sapiens, UniProt P11387); test: Topoisomerase I activity (in vitro): compound-induced, topoisomerase I-mediated single strand breaks in PM2 DNA; assay type: biochemical; details: 30 minutes at 37° C., agarose gel densitometry, read-out: EC50 (median effective concentration for inducing topoisomerase I-mediated single strand breaks in DNA)
T1 construct: purchased Topogen
T1 sequence (P11387 1-765): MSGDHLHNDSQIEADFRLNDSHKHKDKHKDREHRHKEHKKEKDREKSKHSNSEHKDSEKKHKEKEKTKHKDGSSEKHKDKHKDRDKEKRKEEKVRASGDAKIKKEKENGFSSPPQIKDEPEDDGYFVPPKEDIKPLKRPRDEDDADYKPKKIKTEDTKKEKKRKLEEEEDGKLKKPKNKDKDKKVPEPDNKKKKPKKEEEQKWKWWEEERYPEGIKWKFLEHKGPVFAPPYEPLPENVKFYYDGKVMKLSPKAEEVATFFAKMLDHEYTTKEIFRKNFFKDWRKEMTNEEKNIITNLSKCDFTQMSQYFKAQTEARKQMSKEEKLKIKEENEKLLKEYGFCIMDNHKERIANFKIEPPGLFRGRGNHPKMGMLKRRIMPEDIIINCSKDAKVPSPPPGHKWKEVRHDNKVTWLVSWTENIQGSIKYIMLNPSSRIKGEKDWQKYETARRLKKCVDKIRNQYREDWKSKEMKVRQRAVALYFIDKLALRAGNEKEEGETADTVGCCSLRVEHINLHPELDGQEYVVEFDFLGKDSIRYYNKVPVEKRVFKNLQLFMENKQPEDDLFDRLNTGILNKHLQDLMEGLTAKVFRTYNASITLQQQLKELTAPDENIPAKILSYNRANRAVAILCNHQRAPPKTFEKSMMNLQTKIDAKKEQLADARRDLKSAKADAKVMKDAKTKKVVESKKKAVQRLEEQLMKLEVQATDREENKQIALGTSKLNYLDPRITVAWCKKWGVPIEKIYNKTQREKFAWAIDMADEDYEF
Procedure: Topoisomerase I Activity (In Vitro)
Topoisomerase I activity was measured as described below: The procedure for assaying compound-induced, topoisomerase I-mediated single strand breaks in DNA was essentially that described by Hsiang, et al., (J. Biol Chem. 1985, 260, 14873-14878). Samples dissolved in 100% DMSO as either 10 μM or 10 mg/ml solutions, unless otherwise stated, were diluted in Tris-EDTA buffer. Marine bacteriophage PM2 DNA (Boehringer Mannheim) was also diluted in Tris-EDTA buffer to a concentration of 0.02 μg/μl. Different dilutions of the compound being evaluated were mixed with diluted DNA and this mixture was added to 1000 unit (one unit of enzyme activity is defined as the amount capable of relaxing 100 ng of supercoiled DNA in approximately 30 minutes at 37° C.) aliquots of purified human topoisomerase I (Topogen) in 2× reaction buffer to start the reaction. The compound-DNA-enzyme mixture was incubated for 30 minutes at 37° C. before stopping the reaction with warm stop buffer containing sodium dodecyl sulfate and proteinase K (Sigma). These mixtures were allowed to incubate at 37° C. for another 10 minutes, at which time the mixtures were removed from the waterbath and extracted with a 24:1 mixture of chloroform/isoamyl alcohol. Following centrifugation, aliquots of the aqueous phases were placed in wells of a 0.9% agarose (SeaKem) gel in Tris-borate buffer containing 0.5 μg/ml of ethidium bromide and subjected to electrophoresis for 15 hours to separate the different topological isomers and nicked and broken DNAs. After destaining the gel in water, the ethidium bromide stained DNA reaction products were visualized by exposing the gel to UV irradiation. Negatives of the photographs of the irradiated gels were scanned with a densitometer and areas under the peaks were calculated in order to obtain percent single strand DNA break formation for each sample. A median effective concentration (EC50) was obtained for each compound by interpolation between points of the resulting dose-effect curve which defines the potency of the compound for its effect in inducing topoisomerase I-mediated single strand breaks in DNA.
The topoisomerase I activity for certain compounds of the present invention is shown below in Table I.

murine P388 cell line = test: In vitro cell-based cytotoxicity: proliferation inhibition, XTT tetrazolium assay; details: Mus musculus; P388 cells, 72 h at 37° C., XTT absorbance at 450 nm; read-out: IC50 (drug concentration required to inhibit cell proliferation to 50% of untreated control cells)
Procedure: In Vitro Cell-Based Cytotoxicity Activity
The proliferation inhibition activity against murine P388 cell line was measured as follows. Evaluation of a soluble tetrazolium/formazan assay for cell growth and drug sensitivity in culture, using human and other tumor cell lines, was done according to the procedure described in Cancer Res. 1988, 48, 4827-4833. Cells were plated at 4000 cells/well in 96 well microtiter plates and 24 h later drugs were added and serially diluted. The cells were incubated at 37° C. for 72 h, at which time a tetrazolium dye, XTT, containing phenazine methosulfate was added. A dehydrogenase enzyme in live cells reduced the XTT to a form that absorbs light at 450 nm, which could be quantitated spectrophotometrically. The greater the absorbance the greater the number of live cells. The results are expressed as an IC50, which is the drug concentration required to inhibit cell proliferation (i.e., absorbance at 450 nm) to 50% of that of untreated control cells.

pEC50 [1]: < 4.00
melting point: > 300 °C
SMILES: O=C1NC(=O)c2c1c1c3ccc(F)cc3n3c1c1c2c2ccc(F)cc2n1[C@@H]1O[C@H](CO)[C@@H](O)[C@H](O)[C@@H]13 [Example 24, 2,10-Difluoro-12,13-[1,2-β-D-glucopyranosyl]-6,7,12,13-tetrahydro(5H)-indolo-[2,3-a]pyrrolo[3,4-c]carbazole-5,7-dione]
pIC50 (murine P388 cell line): 5.94
